# Experimental data: patent US20140221385A1, “COMBINATIONS OF SEROTONIN RECEPTOR AGONISTS FOR TREATMENT OF MOVEMENT DISORDERS” (CONCIT PHARMA APS, priority 2011, published 2014)
# Key:
# Huntington's disease = settings: one patient suffering from Huntington's disease; cited from earlier work
# [1] = system: 6-OHDA unilateral lesion model rats; experiment: Forepaw adjusting steps (FAS) test, 6-OHDA induced akinesia; assay type: in vivo, rat; settings: for average percentage of adjusting steps (impaired paw to intact paw): L-DOPA 3 mg/kg with 15 mg/kg benserazide s.c. 60 min pretest
# [2] = system: unilaterally 6-OHDA-lesioned rats; experiment: L-DOPA induced AIMs and drugs screening test in the 6-OHDA rat model; assay type: in vivo; settings: for L-DOPA-induced dyskinesia (AIMs): Example XIII; for L-DOPA induced AIMs (Lim+Ax+OI): Example X, FIG. 5
# Description: 6-OHDA (6-hydroxydopamine) is a neurotoxin that selectively kills dopaminergic and noradrenergic neurons and induces a reduction of dopamine levels in the brain. Administration of L-DOPA to unilaterally 6-OHDA-lesioned rats induces abnormal involuntary movements (ATMs). These are axial, limb and oral movements that occur only on the body side that is […] to the lesion.
# DA-denervating lesions are performed by unilateral injection of 6-OHDA in the ascending nigrostriatal pathway. Rats were anesthetized with pentobarbital sodium 40 mg/kg (i.p.) and positioned in a stereotactic frame. 6-OHDA is injected into the right ascending DA bundle at the following coordinates (in mm) relative to bregma and dural surface: (1) toothbar position −2.3, A=−4.4, L=1.2, V=7.8, (7.5 ug 6-OHDA), (2) toothbar position +3.4, A=−4.0, L=0.8, V=8.0 mm (6 ug 6-OHDA). The neurotoxin injections are performed at a rate of 1 ul/min, and the injection cannula is left in place for an additional 2-3 min thereafter. Two weeks after surgery rats with nearly complete (>90%) lesions are selected by means of an amphetamine-induced rotation test. The animals are placed in plastic Perspex bowls (30 cm in diameter) and the rotational behavior (360° turns) is recorded by an automated rotometer for 90 min after the i.p. injection of 2.5 mg/kg d-amphetamine sulphate. […] Animals are then allocated into two well-matched sub-groups (according to the amphetamine rotation) and receive daily treatment as described below.
# L-DOPA methyl ester (Sigma-Aldrich, Germany) is given at the dose of 6 mg/kg, combined with 15 mg/kg of benserazide HCl (Sigma-Aldrich, Germany). […] The selected rats are allocated groups of 9-12 animals each, which are balanced with the respect to AIM severity. The animals are then treated with the drug and drug combinations as described below.
# AIMs ratings are performed by an investigator who was kept unaware of the pharmacological treatment administered to each rat (experimentally blinded). […] The AIM's are classified into four subtypes:
# (A) axial AIMs, i.e., dystonic or choreiform torsion of the trunk and neck towards the side contralateral to the lesion. In the mild cases: lateral flexion of the neck or torsional movements of the upper trunk towards the side contralateral to the lesion. With repeated injection of L-DOPA, this movement may develop into a pronounced and continuous dystonia-like axial torsion. (B) limb AIMs, i.e., jerky and/or dystonic movements of the forelimb contralateral to the lesion. In mild cases: hyperkinetic, jerky stepping movements of the forelimb contralateral to the lesion, or small circular movements of the forelimb to and from the snout. As the severity of dyskinesia increases (which usually occurs with repeated administration of L-DOPA), the abnormal movements increase in amplitude, and assume mixed dystonic and hyperkinetic features. Dystonic movements are caused by sustained co-contraction of agonist/antagonist muscles; they are slow and force a body segment into unnatural positions. Hyperkinetic movements are fast and irregular in speed and direction. […] (C) orolingual AIMs, i.e., twitching of orofacial muscles, and bursts of empty masticatory movements with protrusion of the tongue towards the side contralateral to the lesion. This form of dyskinesia affects facial, tongue, and masticatory muscles. It is recognizable as bursts of empty masticatory movements, accompanied to a variable degree by jaw opening, lateral translocations of the jaw, twitching of facial muscles, and protrusion of the tongue towards the side contralateral to the lesion. […] Each of the four subtypes are scored on a severity scale from 0 to 4, where 0=absent, 1=present during less than half of the observation time, 2=present for more than half of the observation time, 3=present all the time but suppressible by external stimuli, and 4=present all the time and not suppressible by external stimuli.
# Parkinson's disease = settings: cited from earlier work
# LID = settings: cited from earlier work
# Sprague-Dawley (SD) rats = experiment: Rotarod test (Example V); assay type: in vivo, rat; settings: pentobarbital 15 mg/kg i.p. 30 min before test, positive control; FIG. 2
# Description: In brief, the animals (30 SD male rats (180-220 g, bred in house, originally from SLAC Laboratory Animal Co. Ltd) at 9-week of age) were trained twice a day for a 3-day period. […] Each training trial was ended if the animal fell off or grips the device and spun around for two consecutive revolutions. The time that rat stayed on the Rotarod was recorded. The staying duration recorded at last training trail was used as baseline. Rats were grouped according a randomly distribution of baseline.
# For the test session on the fourth day, the rats were evaluated on the Rotarod with the same setting as above at 30 min after dosing. The rats were dosed with drugs as described below. Dosing and Rotarod measurement were conducted by two scientists separately. Pentobarbital (15 mg/kg. i.p.) was used a as a positive control.
# Vehicle: Saline, i.p., 30 min before test, n=10 Positive control: Pentobarbital 15 mg/kg, i.p. 30 min before test, n=10
# The data were analyzed using One-Way ANOVA and the Tukey post-hoc test.
# naïve rats = experiment: Open field test (Example VI); assay type: in vivo, rat; settings: pentobarbital 15 mg/kg i.p. 30 min before test, positive control; FIG. 3
# Description: The open field test was used to determine the effects of drug on locomotor activity. Rats were put in open-field chambers (dimensions 40 cm×40 cm×40 cm) 30 minutes after dosing. After a 15 minutes habituation, locomotion were recorded and analysed by Enthovision Video Tracking Software (Noldus Information Technology, Netherlands) for 60 minutes. All locomotor activities were done during dark phase and to eliminate olfactory cues, the arena was thoroughly cleaned with 70% v/v ethanol between each test.
# Group setting for compound tests: Vehicle: Saline, i.p., 30 min before test, n=10 Positive control: Pentobarbital 15 mg/kg, i.p. 30 min before test, n=10
# Zolmitriptan 3 mg/kg, i.p. 5 min before buspirone Buspirone 1 mg/kg, i.p. 30 min before test, n=10
# Statistical analysis: The total locomotor activity is expressed as total moved distance (cm) and average velocity (cm/s) during 60 minutes. The data were analysed using One-Way ANOVA and the Tukey post-hoc test. The locomotor activity in six time point is expressed as moved distance (cm) and average velocity (cm/s) every 10 minutes. The data were analysed using One-Way ANOVA and the Tukey post-hoc test in each time point.
compound,measurement,setting,value
"O=C1[C@H]2CCCC[C@H]2C(=O)N1CCCCN1CCN(c2nsc3ccccc23)CC1 [perospirone, (3aR, 7aS)-2-{4-[4-(1,2-benzisothiazol-3-yl)piperazin-1-yl]butyl}hexahydro-1H-isoindole-1,3(2H)-dione]",involuntary movement,Huntington's disease,could reduce involuntary movement
"N[C@@H](Cc1ccc(O)c(O)c1)C(=O)O [L-DOPA, 3,4-dihydroxyphenylalanine]",average percentage of adjusting steps (impaired paw to intact paw),[1]; first study,77.8%
same,"6-OHDA induced akinesia, forelimb use","[1]; first study, acute L-DOPA 3 mg/kg with 15 mg/kg benserazide",alleviated 6-OHDA induced akinesia by increasing the forelimb use
same,forelimb use,"[1]; second study, L-DOPA 3 mg/kg with 15 mg/kg benserazide HCl",significantly increase the forelimb use
same,average percentage of adjusting steps (impaired paw to intact paw),[1]; second study,77.7%
"CN(C)CCc1c[nH]c2ccc(C[C@H]3COC(=O)N3)cc12 [zolmitriptan, (S)-4-({3-[2-(dimethylamino)ethyl]-1H-indol-5-yl}methyl)-1,3-oxazolidin-2-one]",L-DOPA-induced AIM (Total AIMs),"[2]; Example IV, FIG. 1, zolmitriptan 10 mg/kg i.p. given alone",did not reduce AIM
"O=C1CC2(CCCC2)CC(=O)N1CCCCN1CCN(c2ncccn2)CC1 [buspirone, 8-[4-(4-pyrimidin-2-ylpiperazin-1-yl)butyl]-8-azaspiro[4.5]decane-7,9-dione]",L-DOPA-induced AIM (Total AIMs),"[2]; Example IV, FIG. 1, buspirone 1 mg/kg i.p. given alone",only partly reduced AIM
same,L-DOPA-induced AIM (Total AIMs),"[2]; Example VII, FIG. 4, buspirone 0.5 mg/kg i.p. given alone",only partly reduced AIM
same,L-DOPA-induced dyskinesia (AIMs),[2]; buspirone 0.25 and 0.5 mg/kg s.c. 25 min before test,significantly reduced L-DOPA-induced dyskinesia
same,disability ratings,Parkinson's disease; 100 mg/day,significant worsening of disability ratings
same,dyskinesia,Parkinson's disease; 100 mg/day,reduced dyskinesia
same,effects on Parkinson's disease or dyskinesia,Parkinson's disease; 10-60 mg/day,did not have any effects on Parkinson's disease or dyskinesia
"Fc1ccc(-c2cncc(CNC[C@H]3CCc4ccccc4O3)c2)cc1 [sarizotan, 1-[(2R)-3,4-dihydro-2H-chromen-2-yl]-N-([5-(4-fluorophenyl)pyridin-3-yl]methyl)methanamine]",LID,LID; phase 2A study and open labeled study,reduced LID
same,"LID, effect compared to placebo",LID; several large phase 2b studies,no significant effects
CCCC(C)C1(CC)C(=O)NC(=O)NC1=O (stereo not shown) [pentobarbital],rotarod performance (time on the rod),Sprague-Dawley (SD) rats,significantly reduced time spend on the rotarod
same,open field locomotor activity (total move distance),naïve rats,significantly reduced motor performance
"O=C1[C@@H]2[C@@H]3CC[C@@H](C3)[C@@H]2C(=O)N1CCCCN1CCN(c2ncccn2)CC1 [tandospirone, (1R,2R,6S,7S)-4-{4-[4-(pyrimidin-2-yl)piperazin-1-yl]butyl}-4-azatricyclo[5.2.1.02,6]decane-3,5-dione]",L-DOPA induced AIMs (Lim+Ax+OI),[2]; tandospirone 1 mg/kg i.p. 30 min before test,partially and briefly reduce AIMs
same,L-DOPA induced AIMs (Lim+Ax+OI),[2]; tandospirone 2 mg/kg i.p. 30 min before test,partially and briefly reduce AIMs
same,L-DOPA-induced dyskinesia (AIMs),[2]; tandospirone 1 and 2 mg/kg i.p. 25 min before test,significantly reduced L-DOPA-induced dyskinesia
